Test results from US20070191490A1, “Withacnistin compounds for treatment of cancer” (priority 2006, published 2007).
“Also recorded” adds a separate entry of the source.

What was measured:
phosphotyrosine-STAT3 = test: Inhibition of phosphotyrosine-STAT3 levels in tumor cell lines (Western blotting); assay type: cell-based, human; conditions: for levels of P-STAT3: 10 μM, 4 hours; for IC50: Wit tested as withacnistin mixture; for P-STAT3 levels: A549 cells (FIG. 8A); for potency compared with the withacnistin mixture (P-STAT3 suppression): A549 and MDA-MB-468 cells
Method: (§1) Western blotting. Treated cell samples were lysed in 30 mM HEPES, pH 7.5, 10 mM NaCl, 5 mM MgCl2, 25 mM NaF, 1 mM EGTA, 1% Triton X-100, 10% glycerol, 2 mM sodium orthovanadate, 10 μg/ml aprotinin, 10μ/ml soybean trypsin inhibitor, 25 μg/ml leupeptin, 2 mM PMSF, and 6.4 mg/ml p-nitrophenylphosphate. Phospho-STAT3, phospho-AKT, phospho-Src, and phospho-p42/p44 MAPK antibodies were obtained from Cell Signaling Technologies (Cambridge, Mass., USA). Phospho-JNK and whole STAT3 antibodies were purchased from Santa Cruz Biotechnology (Santa Cruz, Calif., USA); phospho-JAK2 antibody came from Upstate Biotechnology (Lake Placid, N.Y., USA). Membranes were blocked in either 5% milk in phosphate-buffered saline (PBS), pH 7.4, containing 0.1% Tween-20 (PBS-T) or 1% BSA in tris-buffered saline (TBS), pH 7.5, containing 0.1% Tween-20 (TBS-T). Phospho-specific antibodies (excepting P-MAPK and P-JNK) were incubated in 1% BSA in TBS-T while all other antibodies were diluted in 5% milk in PBS-T for either 2 h at room temperature or overnight at 4° C. HRP-conjugated secondary antibodies (Jackson ImmunoResearch, West Grove, Pa., USA) were diluted in 5% milk in either PBS-T or TBS-T at 1:1000 dilution for 1 h at room temperature. Western blots were visualized using enhanced chemiluminescence.
(§2) To this end, A549 cells (a human non-small-cell lung carcinoma line) were treated with either vehicle, cucurbitacin analogs A, B, E, or I, or withacnistin mixture (10 ∥M) for 4 hours and the cell lysates processed for Western blotting with antiphosphotyrosine STAT3 (Y705) antibody or antiphosphotyrosine JAK2 (Y1007, Y1008) antibody as described under Materials and Methods.
(§3) As further support of the specific antiphosphotyrosine STAT3, but not antiphosphotyrosine JAK2, activity of withacnistin, A549 cells, as well as two breast carcinoma cell lines (MDA-MB-435 and MDA-MB-468) that also express constitutively activated JAK2 and STAT3, were treated with the withacnistin mixture at various concentrations, and determined IC50 values of inhibition of STAT3 and JAK2 activation.

JAK2 = test: Total JAK2 levels in A549 cells; assay type: cell-based, human; conditions: 10 μM, data not shown
Method: as §3, with “activation. […] In all three cell lines, JAK2 activation was not inhibited at withacnistin concentrations as high as 10 μM. […] Thus, in all three cell lines, withacnistin (Wit) inhibits specifically STAT3 but not JAK2 activation and Cuc A inhibits JAK2 but not STAT3 activation whereas Cuc I inhibits the activation of both STAT3 and JAK2.” for “activation.”

A549 tumors = test: Antitumor activity in nude mouse xenograft model, A549; assay type: in vivo; conditions: nude mice, 1 mg/kg/day i.p., Wit = withacnistin mixture
Text: Antitumor activity in the nude mouse tumor xenograft model. Nude mice (Charles River, Wilmington, Mass., USA) were maintained in accordance with the Institutional Animal Care and Use Committee (IACUC) procedures and guidelines. A549 cells were harvested, resuspended in PBS, and injected subcutaneously (s.c.) into the right and left flank (1×10^7 cells per flank) of 8-week-old female nude mice as reported previously (Blaskovich, M. A. et al. Cancer Res., 2003, 63:1270-1279). When tumors reached about 150 mm^3, animals were randomized (four animals per group; two tumors per animal) and dosed intraperitoneally (i.p.) either with cucurbitacin analogs (0.5 or 1 mg/kg/day, i.p.) in 20% DMSO in water or with an equal volume of vehicle control. The tumor volumes were determined by measuring the length (l) and the width (w) and calculating the volume (V=lw^2/2) as described previously (Blaskovich, M. A. et al. Cancer Res., 2003, 63:1270-1279). Statistical significance between control and treated animals were evaluated by using Student's t-test.
To determine the ability of the cucurbitacin analogs and withacnistin to inhibit tumor growth in vivo, the antitumor activity of the cucurbitacin analogs and withacnistin against both A549 and v-Src/3T3 tumors in a nude mouse xenograft model was evaluated. When the tumors became palpable (at volumes of approximately 100-150 mm^3), the mice were treated either with vehicle control or 1 mg/kg/day of the cucurbitacins or the withacnistin mixture. Tumor volumes were monitored by caliper measurement as previously described (Blaskovich, M. A. et al. Cancer Res., 2003, 63:1270-1279) and under Materials and Methods.

phosphotyrosine-JAK2 = test: Inhibition of phosphotyrosine-JAK2 levels in tumor cell lines (Western blotting); assay type: cell-based, human; conditions: for levels of P-JAK2: 10 μM, 4 hours; for IC50: Wit tested as withacnistin mixture; for P-JAK2 levels: A549 cells (FIG. 8A)
Method: as §1, §2, §3

Compound	levels of P-STAT3 (phosphotyrosine-STAT3; A549 cells)	IC50 (phosphotyrosine-STAT3; A549 cells) [µM]	IC50 (phosphotyrosine-STAT3; MDA-MB-435 cells) [µM]	IC50 (phosphotyrosine-STAT3; MDA-MB-468 cells) [µM]	total JAK2 levels (JAK2)	% Inhibition of tumor growth (A549 tumors) [%]	levels of P-JAK2 (phosphotyrosine-JAK2; A549 cells)	IC50 (phosphotyrosine-JAK2; A549 cells) [nM]	IC50 (phosphotyrosine-JAK2; MDA-MB-435 cells) [nM]	IC50 (phosphotyrosine-JAK2; MDA-MB-468 cells) [nM]	P-STAT3 levels (phosphotyrosine-STAT3)	P-JAK2 levels (phosphotyrosine-JAK2)	P-STAT3 (phosphotyrosine-STAT3; A549 and MDA-MB468 cells, 4-hour treatment (FIGS. 7A, 7B))	potency compared with the withacnistin mixture (P-STAT3 suppression) (phosphotyrosine-STAT3; listed as W)	potency compared with the withacnistin mixture (P-STAT3 suppression) (phosphotyrosine-STAT3; listed as pure withacnistin)
CC(=O)OC(C)(C)/C=C/C(=O)[C@](C)(O)[C@H]1[C@H](O)C[C@@]2(C)[C@@H]3CC=C4[C@@H](C[C@H](O)C(=O)C4(C)C)[C@]3(CO)C(=O)C[C@]12C [Cuc A, cucurbitacin A]	had no effect; also recorded: little inhibitory activity	> 10	> 10	> 10	none of the three compounds affects	11.1	suppressed; also recorded: potently inhibited	1500 ± 700	650 ± 50	860					
CC(C)(O)/C=C/C(=O)[C@](C)(O)[C@H]1[C@H](O)C[C@@]2(C)[C@@H]3CC=C4[C@@H](C=C(O)C(=O)C4(C)C)[C@]3(C)C(=O)C[C@]12C [Cuc I, cucurbitacin I]	inhibited	0.8 ± 0.7	4.6 ± 1.9	7.5 ± 1.5	none of the three compounds affects	55.4	inhibited	250 ± 90	180 ± 70	400 ± 260	suppressed the levels of both	suppressed the levels of both			
CC(=O)OC[C@]12CC[C@H]3[C@@H](C[C@H]4O[C@]45[C@@H](O)C=CC(=O)[C@]35C)[C@@H]1CC[C@@H]2[C@H](C)[C@H]1CC(C)=C(C)C(=O)O1 [withacnistin]		3.7 ± 1.7	0.9 ± 0.6	1.4 ± 0.7	none of the three compounds affects	73.1		> 10000	> 10000	> 10000	suppressed	but not P-JAK2	inhibit	slightly more potent than WM	more potent than the withacnistin mixture
